Assay results from ChEMBL document CHEMBL1671744 (Antimicrob Agents Chemother, 2010).
Values after ≈ are worked out from the molar mass of the structure shown. Where a SMILES comes first, the peptide text is derived from it. [ ]: non-standard residue; d: D form. The star is where a group is joined. Leu(5,5,5,5',5',5'-F6) = N[C@@H](CC(C(F)(F)F)C(F)(F)F)C(=O)O; Undecanoyl = CCCCCCCCCCC(=O)*

Assays:
[1] = system: Bacillus subtilis; assay: Antimicrobial activity against Bacillus subtilis; assay type: functional
[2] = system: Escherichia coli; assay: Antimicrobial activity against Escherichia coli; assay type: functional
[3] = in vitro
[4] = system: Pseudomonas aeruginosa; assay: microbe, parasite or virus in culture; assay type: functional
[5] = erythrocyte
[6] = system: Staphylococcus aureus; assay: Antimicrobial activity against Staphylococcus aureus; assay type: functional
[7] = system: Aspergillus fumigatus; assay: Antimicrobial activity against Aspergillus fumigatus; assay type: functional
[8] = Toxicity in RBC assessed as hemolysis at 25 uM; assay type: cell-based; conditions: erythrocyte

## CC(C)[C@H](NC(=O)[C@H](CCCNC(=N)N)NC(=O)CNC(=O)[C@@H](NC(=O)[C@@H]1CCCN1C(=O)[C@@H](N)Cc1ccccc1)C(C)C)C(=O)N[C@@H](Cc1cnc[nH]1)C(=O)N[C@@H](CCCNC(=N)N)C(=O)N[C@@H](CC(C(F)(F)F)C(F)(F)F)C(=O)N[C@@H](CC(C(F)(F)F)C(F)(F)F)C(=O)N[C@@H](CCCNC(=N)N)C(=O)N[C@@H](CCCCN)C(=O)O (H-FPVGRVHR[Leu(5,5,5,5',5',5'-F6)][Leu(5,5,5,5',5',5'-F6)]RK-OH)
[1]
  MIC: 5.9 µM (≈ 9.99 µg/mL)
[2]
  MIC: 23 µM (≈ 39 µg/mL)
[3]; red blood cells
  HC50: > 235 µM

## CC[C@H](C)[C@H](NC(=O)[C@H](CC(C)C)NC(=O)[C@H](CCCCN)NC(=O)[C@H](CC(C)C)NC(=O)[C@H](CC(C)C)NC(=O)[C@@H](NC(=O)[C@H](Cc1cnc[nH]1)NC(=O)[C@H](CC(C)C)NC(=O)[C@@H](NC(=O)[C@@H](NC(=O)[C@H](CCCCN)NC(=O)[C@H](CCCCN)NC(=O)[C@H](CC(C)C)NC(=O)[C@H](CO)NC(=O)[C@H](CCCCN)NC(=O)[C@H](Cc1ccccc1)NC(=O)[C@@H](NC(=O)[C@H](CCCCN)NC(=O)[C@H](CC(C)C)NC(=O)[C@H](Cc1ccccc1)NC(=O)[C@H](CO)NC(=O)[C@H](Cc1c[nH]c2ccccc12)NC(=O)[C@H](CCCCN)NC(C)=O)[C@@H](C)O)[C@@H](C)O)C(C)C)[C@@H](C)O)C(=O)N[C@@H](CO)C(=O)N[C@@H](CO)C(N)=O
[4]
  MIC: 168 µM (≈ 502 µg/mL)
[5]
  MHC: 1.3 µM

## CC(C)C[C@H](NC(=O)[C@H](CC(C)C)NC(=O)[C@H](CCCNC(=N)N)NC(=O)[C@H](Cc1cnc[nH]1)NC(=O)[C@@H](NC(=O)[C@H](CCCNC(=N)N)NC(=O)CNC(=O)[C@@H](NC(=O)[C@@H]1CCCN1C(=O)[C@@H](N)Cc1ccccc1)C(C)C)C(C)C)C(=O)N[C@@H](CCCNC(=N)N)C(=O)N[C@@H](CCCCN)C(=O)O (H-FPVGRVHRLLRK-OH)
[1]
  MIC: > 173 µM
[2]
  MIC: > 173 µM
[3]; red blood cells
  HC50: > 270 µM

## N=C(N)NCCC[C@H](NC(=O)[C@H](Cc1c[nH]c2ccccc12)NCCCC[C@H](N[C@@H](Cc1c[nH]c2ccccc12)C(=O)N[C@@H](CCCNC(=N)N)C(=O)O)C(=O)NCCCC[C@H](NC(=O)[C@H](CCCCN[C@@H](Cc1c[nH]c2ccccc12)C(=O)N[C@@H](CCCNC(=N)N)C(=O)O)N[C@@H](Cc1c[nH]c2ccccc12)C(=O)N[C@@H](CCCNC(=N)N)C(=O)O)C(=O)NCCC(N)=O)C(=O)O
[6]
  MIC: 8.7 µM (≈ 16.1 µg/mL)
[2]
  MIC: 2.4 µM (≈ 4.43 µg/mL)
[3]; red blood cells
  HC50: 760 µM

## CC[C@H](C)[C@H](NC(=O)CN)C(=O)NCC(=O)N[C@@H](CCCCN)C(=O)N[C@@H](Cc1ccccc1)C(=O)N[C@@H](CC(C(F)(F)F)C(F)(F)F)C(=O)N[C@@H](Cc1cnc[nH]1)C(=O)N[C@@H](C)C(=O)N[C@@H](C)C(=O)N[C@@H](CCCCN)C(=O)N[C@@H](CCCCN)C(=O)N[C@@H](Cc1ccccc1)C(=O)N[C@@H](C)C(=O)N[C@@H](CCCCN)C(=O)N[C@@H](C)C(=O)N[C@@H](Cc1ccccc1)C(=O)N[C@H](C(=O)N[C@@H](C)C(=O)N[C@@H](CCC(=O)O)C(=O)N[C@@H](CC(C(F)(F)F)C(F)(F)F)C(=O)N[C@@H](CCSC)C(=O)N[C@@H](CC(N)=O)C(=O)N[C@@H](CO)C(N)=O)C(C)C (H-GIGKF[Leu(5,5,5,5',5',5'-F6)]HAAKKFAKAFVAE[Leu(5,5,5,5',5',5'-F6)]MNS-NH2)
[1]
  MIC: 0.92 µM (≈ 2.48 µg/mL)
[2]
  MIC: 0.92 µM (≈ 2.48 µg/mL)
[3]; red blood cells
  HC50: 7.4 µM

## CCCCCCCCCCCCCCCC(=O)N[C@@H](CCCCN)C(=O)N[C@@H](CCCCN)C(=O)N[C@@H](CCCCN)C(N)=O
[7]
  MIC: 3.1 µM (≈ 1.98 µg/mL)
[2]
  MIC: 1.56 µM (≈ 0.998 µg/mL)
[3]; red blood cells
  HC50: 100 µM

## CC[C@H](C)[C@H](NC(=O)CN)C(=O)NCC(=O)N[C@@H](CCCCN)C(=O)N[C@@H](Cc1ccccc1)C(=O)N[C@@H](CC(C)C)C(=O)N[C@@H](Cc1c[nH]cn1)C(=O)N[C@@H](CO)C(=O)N[C@@H](C)C(=O)N[C@@H](CCCCN)C(=O)N[C@@H](CCCCN)C(=O)N[C@@H](Cc1ccccc1)C(=O)NCC(=O)N[C@@H](CCCCN)C(=O)N[C@@H](C)C(=O)N[C@@H](Cc1ccccc1)C(=O)N[C@H](C(=O)NCC(=O)N[C@@H](CCC(=O)O)C(=O)N[C@H](C(=O)N[C@@H](CCSC)C(=O)N[C@@H](CC(N)=O)C(=O)N[C@@H](CO)C(=O)O)[C@@H](C)CC)C(C)C [MAGAININ 2] (H-GIGKFLHSAKKFGKAFVGEIMNS-OH)
[1]
  MIC: 1 µM (≈ 2.47 µg/mL)
[2]
  MIC: 1 µM (≈ 2.47 µg/mL)
[3]; red blood cells
  HC50: 70.6 µM

## N=C(N)NCCC[C@H](NC(=O)[C@H](Cc1c[nH]c2ccccc12)NC(=O)[C@H](CCCNC(=N)N)NC(=O)[C@H](Cc1c[nH]c2ccccc12)NC(=O)[C@@H](N)CCCNC(=N)N)C(=O)N[C@@H](Cc1c[nH]c2ccccc12)C(N)=O (H-RWRWRW-NH2)
[6]
  MIC: 8 µM (≈ 8.35 µg/mL)
[2]
  MIC: 16 µM (≈ 16.7 µg/mL)
[3]; erythrocyte
  HC50: 210 µM

## N=C(N)NCCC[C@H](NC(=O)[C@H](Cc1c[nH]c2ccccc12)NC(=O)[C@H](CCCNC(=N)N)NC(=O)[C@H](Cc1c[nH]c2ccccc12)NC(=O)[C@H](CCCNC(=N)N)NC(=O)[C@H](Cc1c[nH]c2ccccc12)NC(=O)[C@H](CCCNC(=N)N)NC(=O)[C@H](Cc1c[nH]c2ccccc12)NC(=O)[C@@H](N)CCCNC(=N)N)C(=O)N[C@@H](Cc1c[nH]c2ccccc12)C(N)=O
[6]
  MIC: 3.6 µM (≈ 6.22 µg/mL)
[2]
  MIC: 6.2 µM (≈ 10.7 µg/mL)
[3]; erythrocyte
  HC50: 76 µM

## CCCCCCCCCCCC(=O)N[C@H](CC(C)C)C(=O)N[C@@H](CCCCN)C(=O)N[C@@H](CCCCN)C(=O)N[C@H](CC(C)C)C(=O)N[C@H](CC(C)C)C(=O)N[C@H](CC(C)C)C(=O)N[C@@H](CCCCN)C(=O)N[C@@H](CCCCN)C(=O)N[C@H](CC(C)C)C(=O)N[C@H](CC(C)C)C(=O)N[C@@H](CCCCN)C(=O)N[C@@H](CCCCN)C(=O)N[C@H](CC(C)C)C(N)=O
[7]
  MIC: 6.25 µM (≈ 11 µg/mL)
[2]
  MIC: 25 µM (≈ 44 µg/mL)
[8]
  MHC: Non-toxic

## CC[C@H](C)[C@H](NC(=O)[C@H](C)NC(=O)[C@H](CCCCN)NC(=O)[C@H](C)NC(=O)[C@H](C)NC(=O)[C@@H](NC(=O)[C@H](Cc1cnc[nH]1)NC(=O)[C@H](CC(C)C)NC(=O)[C@@H](NC(=O)[C@@H](NC(=O)[C@H](CCCCN)NC(=O)[C@H](CCCCN)NC(=O)[C@H](C)NC(=O)[C@H](CO)NC(=O)[C@H](CCCCN)NC(=O)[C@H](Cc1ccccc1)NC(=O)[C@@H](NC(=O)[C@H](CCCCN)NC(=O)[C@H](C)NC(=O)[C@H](Cc1ccccc1)NC(=O)[C@H](CO)NC(=O)[C@H](CCCCN)NC(=O)[C@H](Cc1c[nH]c2ccccc12)NC(=O)[C@H](CCCCN)NC(C)=O)[C@@H](C)O)[C@@H](C)O)C(C)C)[C@@H](C)O)C(=O)N[C@@H](CO)C(=O)N[C@@H](CO)C(N)=O (Ac-KWKSFAKTFKSAKKTVLHTAAKAISS-NH2)
[4]
  MIC: 168 µM (≈ 488 µg/mL)
[5]
  MHC: 336 µM

## N=C(N)NCCC[C@H](NC(=O)[C@H](Cc1c[nH]c2ccccc12)NC(=O)[C@H](CCCNC(=N)N)NC(=O)[C@H](Cc1c[nH]c2ccccc12)NC(=O)[C@H](CCCNC(=N)N)NC(=O)[C@H](Cc1c[nH]c2ccccc12)NC(=O)[C@@H](N)CCCNC(=N)N)C(=O)N[C@@H](Cc1c[nH]c2ccccc12)C(N)=O (H-RWRWRWRW-NH2)
[6]
  MIC: 5.1 µM (≈ 7.07 µg/mL)
[2]
  MIC: 9.6 µM (≈ 13.3 µg/mL)
[3]; erythrocyte
  HC50: 100 µM

## CC(C)C[C@@H](N)C(=O)N[C@@H](CCCCN)C(=O)N[C@@H](CCCCN)C(=O)N[C@H](CC(C)C)C(=O)N[C@H](CC(C)C)C(=O)N[C@H](CC(C)C)C(=O)N[C@@H](CCCCN)C(=O)N[C@@H](CCCCN)C(=O)N[C@H](CC(C)C)C(=O)N[C@H](CC(C)C)C(=O)N[C@@H](CCCCN)C(=O)N[C@@H](CCCCN)C(=O)N[C@H](CC(C)C)C(N)=O
[7]
  MIC: 50 µM (≈ 78.9 µg/mL)
[2]
  MIC: > 50 µM
[8]
  MHC: Non-toxic

## CC[C@@H](C)[C@@H](NC(=O)[C@@H](C)NC(=O)[C@@H](CCCCN)NC(=O)[C@@H](CC(C)C)NC(=O)[C@@H](C)NC(=O)[C@H](NC(=O)[C@@H](Cc1cnc[nH]1)NC(=O)[C@@H](CC(C)C)NC(=O)[C@H](NC(=O)[C@H](NC(=O)[C@@H](CCCCN)NC(=O)[C@@H](CCCCN)NC(=O)[C@@H](C)NC(=O)[C@@H](CO)NC(=O)[C@@H](CCCCN)NC(=O)[C@@H](Cc1ccccc1)NC(=O)[C@H](NC(=O)[C@@H](CCCCN)NC(=O)[C@@H](CC(C)C)NC(=O)[C@@H](Cc1ccccc1)NC(=O)[C@@H](CO)NC(=O)[C@@H](CCCCN)NC(=O)[C@@H](Cc1c[nH]c2ccccc12)NC(=O)[C@@H](CCCCN)NC(C)=O)[C@H](C)O)[C@H](C)O)C(C)C)[C@H](C)O)C(=O)N[C@H](CO)C(=O)N[C@H](CO)C(N)=O
[2]
  MIC: 1.1 µM (≈ 3.29 µg/mL)
[4]
  MIC: 5.3 µM (≈ 15.9 µg/mL)

## CSCC[C@H](NC(=O)[C@@H](NC(=O)[C@H](CCCNC(=N)N)NC(=O)[C@H](Cc1ccccc1)NC(=O)[C@H](C)NC(=O)[C@H](C)NC(=O)[C@H](CCCCN)NC(=O)[C@H](CCCNC(=N)N)NC(=O)[C@H](Cc1ccccc1)NC(=O)[C@H](C)NC(=O)[C@@H]1CCCN1C(=O)[C@@H](N)CCCNC(=N)N)C(C)C)C(=O)N[C@@H](CCCNC(=N)N)C(=O)N[C@@H](C)C(=O)N[C@@H](CS)C(=O)N[C@H](C(N)=O)C(C)C (H-RPAFRKAAFRVMRACV-NH2)
[4]
  MIC: 4 µM (≈ 7.51 µg/mL)
[5]
  MHC: > 1300 µM

## CC[C@H](C)[C@H](NC(=O)CN)C(=O)NCC(=O)N[C@@H](CCCCN)C(=O)N[C@@H](Cc1ccccc1)C(=O)N[C@@H](CC(C)C)C(=O)N[C@@H](Cc1cnc[nH]1)C(=O)N[C@@H](CO)C(=O)N[C@@H](C)C(=O)N[C@@H](CCCCN)C(=O)N[C@@H](CCCCN)C(=O)N[C@@H](Cc1c[nH]c2ccccc12)C(=O)NCC(=O)N[C@@H](CCCCN)C(=O)N[C@@H](C)C(=O)N[C@@H](Cc1ccccc1)C(=O)N[C@H](C(=O)NCC(=O)N[C@@H](CCC(=O)O)C(=O)N[C@H](C(=O)N[C@@H](CCSC)C(=O)N[C@@H](CC(N)=O)C(=O)N[C@@H](CO)C(N)=O)[C@@H](C)CC)C(C)C (H-GIGKFLHSAKKWGKAFVGEIMNS-NH2)
[7]
  MIC: > 50 µM

## CCCCCCCCCCC(=O)NCC(=O)N[C@H](C(=O)NCC(=O)N[C@@H](CCCCN)C(=O)N[C@@H](Cc1ccccc1)C(=O)N[C@@H](CC(C)C)C(=O)N[C@@H](Cc1cnc[nH]1)C(=O)N[C@@H](CO)C(=O)N[C@@H](C)C(=O)N[C@@H](CCCCN)C(=O)N[C@@H](CCCCN)C(=O)N[C@@H](Cc1c[nH]c2ccccc12)C(=O)NCC(=O)N[C@@H](CCCCN)C(=O)N[C@@H](C)C(=O)N[C@@H](Cc1ccccc1)C(=O)N[C@H](C(=O)NCC(=O)N[C@@H](CCC(=O)O)C(=O)N[C@H](C(=O)N[C@@H](CCSC)C(=O)N[C@@H](CC(N)=O)C(=O)N[C@@H](CO)C(N)=O)[C@@H](C)CC)C(C)C)[C@@H](C)CC (Undecanoyl-GIGKFLHSAKKWGKAFVGEIMNS-NH2)
[7]
  MIC: 6.25 µM (≈ 16.7 µg/mL)
